Read-outs that look alike come from different tables or passages of the source.
Assays:
[1] = system: indigenous microorganisms; test: Effect of sulfite salts on indigenous microorganisms of unsterilized wood chips (plating); type: cell-based, indigenous microorganisms of unsterilized aspen wood chips; conditions: for first test: whether the salt inhibits growth of indigenous microorganisms: pass / not pass; for inhibition at 600 µg/mL / inhibition at 1200 µg/mL: read-out: Inhibition Relative to control; for inhibition of growth of indigenous microorganisms (in words): unsterilized wood chips, overall statement
Description: Aspen wood chips (50 g O.D. basis) were soaked in 500 ml of water containing either 0 mg, 781 mg or 1562 mg sodium bisulfite for about 1 hour at room temperature. After soaking, water was drained from the chips.
During the 1 hour soaking the chips soaked up about 31 ml of water. Therefore, the final moisture content of wood was about 61% (wet weight basis) and the final concentration of each chemical on water basis was about 0 μg/ml, 600 μg/ml and 1200 μg/ml.
Three chips were pulled randomly from each flask and plated on potato dextrose agar and tryptic soy agar plates. These plates were incubated at 27° C. for 24 or 27 h and the contaminants were visually observed.
A panel of other sulfur-containing chemicals were analyzed for their ability to inhibit the growth of indigenous microorganisms on unsterilized wood chips in the manner described above. Table 2 describes the various concentrations of these chemicals and the percent inhibition relative to control plates observed.

[2] = system: indigenous microorganisms; conditions: Lamar et al. 1990; cited from earlier work

Structure (SMILES)	first test: whether the salt inhibits growth of indigenous microorganisms [1]	Inhibition Relative to control ([1]; 600 μg/ml) [%]	Inhibition Relative to control ([1]; 1200 μg/ml) [%]	other results
O=S([O-])S(=O)[O-].[Na+].[Na+] [Sodium Hydrosulfite]	passed the first test			inhibition at 600 µg/mL [1]: 70%; inhibition at 1200 µg/mL [1]: 100%; inhibition of growth of indigenous microorganisms (in words) [1]: successfully inhibited the growth of microorganisms
O=S(=O)([O-])[O-].[Na+].[Na+] [Sodium Sulfate]	did not pass the test	0	0	
O=S([O-])[O-].[Na+].[Na+] [Sodium Sulfite]	did not pass the test	0	0	
O=S(=O)(O)SSS(=O)(=O)O [Sodium Tetrathionate]				inhibition at 600 µg/mL [1]: 0%; inhibition at 1200 µg/mL [1]: 0%
O=S([O-])([O-])=S.[Na+].[Na+] [Sodium Thiosulfate]		0	0	
O=S(O)S(=O)(=O)O [Sodium meta-Bisulfite]	passed the first test			inhibition at 600 µg/mL ([1]; 600 μg/ml): 100%; inhibition at 1200 µg/mL ([1]; 1200 μg/ml): 100%; inhibition of growth of indigenous microorganisms (in words) [1]: successfully inhibited the growth of microorganisms
CBr [methyl bromide]				inhibition of indigenous microorganisms (in words) [2]: inhibit a number of indigenous microorganisms
O=S([O-])O.[K+] [potassium bisulfite]	passed the first test			
